Test results taken from the NIST ThermoML archive (doi:10.1016/j.tca.2018.10.027).
Values joined by “and” are separate entries in the source; they are usually repeats but may differ in a detail not shown here. Equal values may be shown once.

Settings: Liquid, Calculated from knudsen effusion weight loss

[Ag+].[Br-] [silver bromide]
Settings	vapor or sublimation pressure
829.9 K	0.000109 kPa [middle of 4 runs]
849.9 K	0.000184 kPa [middle of 4 runs]
869.9 K	0.000316 kPa [middle of 4 runs]
889.9 K	0.00057 kPa and 0.000464 kPa and 0.000529 kPa
890 K	0.000602 kPa
909.9 K	0.000855 kPa and 0.000958 kPa and 0.000842 kPa
910 K	0.001143 kPa
929.9 K	0.001712 kPa [middle of 4 runs]
